A short description of data set [1]: Toxicological study and observation of side effects in dogs. The class given is in vivo, dog. The settings on record: 200 nM in 1 mL subcutaneously and 40 nM in 200 microliters intra-tumourally. As to the method: So far nine dogs have been treated with P28R in accordance with some embodiments herein, 4 in the toxicological study (CiToxLab, Denmark) with 200 nM administered in 1 mL subcutaneously and 5 dogs in the treatment study reported here with 40 nM in 200 microliters intra tumourally.
More than 20 dogs have been treated with P28R, including 4 in the toxicological study (CiToxLab®, Denmark) with 200 nM administered in 1 mL subcutaneously and 17 dogs in the treatment study reported here with 40 nM in 200 microliters intra-tumourally.

In data set [2] the test system is spontaneous canine tumours. Put plainly: Intra-tumoral treatment of spontaneous tumours in dogs. The class given is in vivo. Conditions: single dog. As to the method: Seventeen spontaneous canine tumours, of variable histology have been treated by intra-tumoral injection of 40 nmol P28R in 200 microliters. The tumours were resected 3-5 days later, immediately snap frozen and stored at −80° C. until further processed. A detailed description of treatment of the tumors is provided below (see Examples 50-60). In these examples, 15 control dogs with untreated tumours (5 snap frozen and 10 FFPE) were also examined.
A summary is provided for 7 dogs with treated mammary tumours and 5 untreated control dogs (see FIG. 88). Tumour cells (881 for treated dogs, 882 for untreated control dogs) and lymphocytes (883 for both treated dogs and untreated control dogs) were counted at 400× magnification. The ratio between these cells was used as a measure on the inflammatory infiltrate (FIG. 88). The reproducibility and the influence of tumour heterogeneity on cell counts were evaluated by counting several areas from each tumour section.
The therapeutic efficacy was evaluated as the presence of an inflammatory infiltrate and the occurrence of tumour cell regressive changes. As migration of effector cells close to tumour cells is one important, but often inhibited function of these cells, the effect of P28R was specifically evaluated as the presence of inflammatory cells infiltrating into the tumour cell areas close to the tumour cells. […]

Data set [3] is described as follows: Toxicological aspects of P28R in dogs (systemic side effects). Format: in vivo, dog. The settings on record: 21 dogs: 4 with 200 nM in 1 mL subcutaneously, 17 with 40 nM in 200 microliters intra-tumourally. As to the method:
Twenty-one dogs have been treated with P28R, 4 in the toxicological study (CiToxLab®, Denmark) with 200 nM administered in 1 mL subcutaneously and 17 dogs in the treatment study reported here with 40 nM in 200 microliters intra-tumourally.

Structures are written as SMILES. Peptide text beside a SMILES is read from it.

Turning to `CC(C)C[C@H](NC(=O)[C@H](CO)NC(=O)[C@H](CC(C)C)NC(=O)[C@H](CCCCN)NC(=O)[C@@H](NC(=O)[C@H](Cc1ccccc1)NC(=O)[C@H](Cc1ccccc1)NC(=O)[C@@H](NC(=O)[C@H](CC(=O)O)NC(=O)[C@H](CC(C)C)NC(=O)[C@H](CCCCN)NC(=O)[C@@H](N)CCCCN)[C@@H](C)O)C(C)C)C(=O)N[C@@H](Cc1ccccc1)C(=O)N[C@H](C(=O)N[C@@H](CCC(=O)O)C(=O)N[C@@H](CCCNC(=N)N)C(=O)O)[C@@H](C)O` [P28R] (H-KKLDTFFVKLSLFTER-OH; N-terminus and C-terminus assumed), the systemic side effects result in data set [1] and in data set [3] was “None of these dogs showed any systemic side effects” throughout. For the same molecule, in data set [2], the “clinical observations after injection until resection” value was “No systemic adverse events were observed”.

The record behind these values is patent US10881709B2, “Immune system modulators and compositions” (Canimguide Therapeutics AB, priority 2015, dated 2021).
